In series [1] the target is alternative complement pathway in human serum. The series is described as follows: Wieslab alternative complement pathway activation inhibition (enzyme activity test). It is filed as biochemical. The following applies: human serum diluted 1:23, Wieslab alternative pathway kit; read-out: AP MAC IC50. The method, then:
The objective of this experiment is to determine the inhibitory activity of the compounds of the present disclosure on the alternative complement pathway in human serum by using the Wieslab® complement system alternative pathway kit.
Serum was diluted with diluent (1:23). Drugs were added to the diluted serum with 8 concentration gradients of up to 10 mM or 50 mM in a 5-fold serial dilution. […] The mixture of compound and serum was added to a 96-well plate (100 μL/well) provided in the kit, and activated at 37° C. for 1 hour. The plate was washed three times with wash buffer. The plate was added with detection antibody (100 μL) provided in the kit and incubated at room temperature for 30 min. The plate was washed three times with wash buffer. The plate was added with substrate (100 μL) and incubated at room temperature for 30 min.

Series [2] deals with LPS-induced complement activation (plasma C3d protein levels). The series is described as follows: In vivo PD model of LPS-induced complement activation in mice. The arrangement: species or system female C57BL/6J mice. The following applies: for inhibition of C3d levels (LPS-induced complement activation): LPS i.p., plasma Western blot, FIG. 1; for inhibitory effect compared with LNP023: LPS-induced complement activation, C3d levels. The method, then: Experimental objective: To investigate the inhibitory effect of the compounds of the present disclosure on complement activation in mice induced by LPS stimulation. Experimental animals: female C57BL/6J mice, 7 to 9 weeks old, weighing 17 to 23 g; supplier: Shanghai Sipple-Bikai Laboratory Animal Co., Ltd.
Experimental procedure: 100 μg of lipopolysaccharide (LPS) in Salmonella typhimurium (Sigma) dissolved in 100 μL of sterile PBS was intraperitoneally injected to induce complement activation in mice. Negative control animals were intraperitoneally injected 100 μL of sterile PBS, and administered alone by tube feeding (PO). Positive control animals were intraperitoneally injected LPS and PO drug vehicles (0.5% (w/v) methyl cellulose and 0.5% (v/v) Tween 80). The time points for administration and plasma collection are as follows:
Sample collection: 0.3 mL of blood samples were collected from the orbital venous plexus. All blood samples were added to 1.5 mL commercial EDTA-K2 anticoagulant tubes (supplied by Jiangsu Kangjian Medical Apparatus Co., Ltd.). After collection, within half an hour, the blood sample was centrifuged at 4° C., 3000 g for 10 min to aspirate the supernatant plasma, which was put in dry ice immediately, and stored in a refrigerator at −80° C. for Western blot analysis of downstream C3d protein levels after complement activation.
On the technique in general: A western blot detects proteins with antibodies after separation by electrophoresis.

The nature of series [3]: Pharmacokinetic study in mice. It is filed as in vivo, male C57BL/6J mice. The method, then:
Experimental objective: To investigate in vivo plasma pharmacokinetics of the compounds of the present disclosure after a single intravenous injection and intragastric administration in male C57BL/6J mice.
Experimental animals: male C57BL/6J mice, 7 to 9 weeks old, weighing 17 to 23 g; supplier: Shanghai Sipple-Bikai Laboratory Animal Co., Ltd.
Sample collection: 0.03 mL of blood samples were collected by puncture of the saphenous vein in experimental animals at each time point, and the actual blood collection time was recorded. All blood samples were added to 1.5 mL commercial EDTA-K2 anticoagulant tubes (supplied by Jiangsu Kangjian Medical Apparatus Co., Ltd.). After collection, within half an hour, the blood sample was centrifuged at 4° C., 3000 g for 10 min to aspirate the supernatant plasma, which was put in dry ice immediately, and stored in a refrigerator at −80° C. for LC-MS/MS analysis.
Data analysis: Plasma concentrations were processed using the non-compartmental model of WinNonlinTM Version 6.3 (Pharsight, Mountain View, CA) pharmacokinetic software, and pharmacokinetic parameters Cl, T1/2, Cmax, and AUC0-last were calculated using the linear/log trapezoidal method.

Series [4] is described as follows: Pharmacokinetic study in rats. It is filed as in vivo, male Wistar Han rats. As to the method:
Experimental objective: To investigate in vivo plasma pharmacokinetics of the compounds of the present disclosure after a single intravenous injection and intragastric administration in male Wistar Han rats.
Experimental procedure: injection administration (IV): a dose of 1 mpk (vehicle: 30% PEG300/10% Cremphor EL/60% PBS (1×pH 7.4)); oral administration (PO): a dose of 5 mpk or 30 mpk (vehicle: 30% PEG300/10% Cremphor EL/60% PBS (1×pH 7.4))
Sample collection: About 0.3 mL of blood samples were collected by puncture of the jugular vein in experimental animals at each time point, and the actual blood collection time was recorded. All blood samples were added to 1.5 mL commercial EDTA-K2 anticoagulant tubes (supplied by Jiangsu Kangjian Medical Apparatus Co., Ltd.). After collection, the blood sample was centrifuged at 4° C., 3200 g for 10 min to aspirate the supernatant plasma, which was put in dry ice immediately, and stored in a refrigerator at −80° C. for LC-MS/MS analysis.
Data analysis: Plasma concentrations were processed using the non-compartmental model of Phoenix WinNonlin 6.3 pharmacokinetic software, and pharmacokinetic parameters Cl, Cmax, T1/2, and AUC0-last were calculated using the linear/log trapezoidal method.

For series [5], the system named is Sheep Anti-Rat Fx1A Serum induced Heymann nephritis. The series can be described thus: In vivo pharmacodynamic model of passive Heymann nephritis in rats. The arrangement: species or system male SD rats. The following applies: intragastric twice a day for 14 days, FIG. 2. From the text: Experimental objective: To investigate the ability of the compounds of the present disclosure to improve renal function of Sheep Anti-Rat Fx1A Serum induced Heymann nephritis in rats, including the evaluation of reducing proteinuria level and improving renal tissue damage.
Experimental animals: male SD rats, 7 to 10 weeks old, weighing 200 to 300 g; supplier: Beijing Vital River Laboratory Animal Technology Co., Ltd.
Urine was collected from rats on D-2 before administration. […]
Kidney sample collection: All animals were euthanized with CO2 inhalation anesthesia on Day 15, and bilateral kidneys were collected. […] Urine total protein (uTP) in rats was detected without dilution; if exceeding the upper detection limit, it was 10-fold diluted (10 μL of sample+90 μL of saline (0.9% saline)) first (Decrease mode); if still exceeding the upper detection limit after 10-fold dilution, it was 100-fold diluted (2 μL of sample+198 μL of saline (0.9% saline)) (Increase mode). Data were read by the analytical instrument HITACHI LST008 AS (P). • (2) Kidney pathological scoring: The degree of drug damage to rat kidneys (paraffin sections) was analyzed by HE staining. […]

Setting [6] is: male, Wistar Han, rat, plasma, 1 mg/kg, IV (1 mpk).
Where [7] appears, read: male, C57BL/6J, mouse, plasma, 1 mg/kg, IV (1 mpk).
[8] abbreviates: male, C57BL/6J, mouse, plasma, 10 mg/kg, PO (10 mpk).

Marks after values point to notes of the source that are not given here.

On to `COc1cc(C)c2[nH]ccc2c1CN1CC[C@H](C2CC2)C[C@H]1c1ccc(C(=O)O)cc1` [Compound 3A], for which, in series [1], the IC50 (usually the concentration at which inhibition is half-maximal) was 23.6 nM. Besides, in series [2], the “inhibition of C3d levels (LPS-induced complement activation)” value (“inhibition of C3d levels” below) was “significantly inhibit C3d levels” and the “inhibitory effect compared with LNP023” value is given as “better inhibitory effect than that of LNP023”. In series [3] (IV (1 mpk)), this compound showed a Cl of 12.0 mL/min/kg and a T1/2 of 3.9 h. Moreover, in series [3] (PO (10 mpk)), the AUC0-last is 11.156 µM·h and the concentration peaked (Cmax) at 4770 nM.
Regarding `COc1cc(C)c2[nH]ccc2c1CN1CC[C@@H](C2CC2)C[C@H]1c1ccc(C(=O)O)cc1` [Compound 3C], in series [4] (IV (1 mpk)), the Cl came out at 4.6 mL/min/kg and the T1/2 is 3.8 h. Besides, the F % in series [4] (PO (5 mpk or 30 mpk)) was 62%. In addition, in series [4] (PO (5 mpk or 30 mpk), dose-normalized data), the Cmax (usually the maximum level reached in the sampled fluid or tissue) is 838 nM. Besides, in series [4] (PO, a dose of 5 mpk, dose-normalized data), the AUC0-last is listed as 5399^a nM · h. Also, the half-maximal inhibitory concentration (IC50) in series [1] worked out at 51.7 nM. Further, in series [2], the “inhibition of C3d levels” value is on record as “significantly inhibit C3d levels” and the “inhibitory effect compared with LNP023” value is “better inhibitory effect than that of LNP023”. In series [3] (IV (1 mpk)), this compound had a Cl of 11.1 mL/min/kg and a T1/2 of 3.4 h. In series [3] (PO (10 mpk)), this compound returned an AUC0-last of 23.3 µM·h and a Cmax of 6320 nM.
Regarding `CCO[C@H]1CCN(Cc2c(OC)cc(C)c3[nH]ccc23)[C@H](c2ccc(C(=O)O)cc2)C1` [LNP023, reference compound], the clearance (in general, the volume of plasma or blood freed of the substance per unit of time) in series [4] (setting [6]) turned out to be 6.7 mL/min/kg; in series [3] (setting [7]), 18.4 mL/min/kg. Also, the half-life (usually the time needed for the level to fall by half in the phase considered) in series [4] (setting [6]) is 1.2 h; in series [3] (setting [7]), 1.3 h. Besides, the AUC(0-t) – broadly, the area under the concentration-time curve up to a stated or last time point – was 2.19 µM·h in series [4] (male, Wistar Han, rat, plasma, 30 mg/kg, PO, a dose of 30 mpk, dose-normalized data) and 9.3 µM·h in series [3] (setting [8]). Also, the bioavailability – broadly, the share of a dose that reaches the circulation, judged against a reference dose that is usually intravenous – in series [4] (male, Wistar Han, rat, plasma, PO (5 mpk or 30 mpk)) amounted to 38%. Moreover, the maximum concentration (Cmax) turned out to be 379 nM in series [4] (male, Wistar Han, rat, plasma, PO (5 mpk or 30 mpk), dose-normalized data) and 2500 nM in series [3] (setting [8]). Also, the “inhibition of C3d levels” value in series [2] is listed as “significantly inhibit C3d levels”. Further, the “urinary protein levels and renal function” value in series [5] is “significantly inhibit urinary protein levels in rats and improve renal function in rats”.
